One assay relates to MDA-MB-231. Description: Antiproliferative activity against human MDA-MB-231 cells 24 to 48 hrs by MTT assay. It is filed as functional, cell-based.
The test system of another assay is RAW264.7. Description: Anti-inflammatory activity in mouse RAW264.7 cells assessed as inhibition of LPS/IFN-gamma-induced nitric oxide production preincubated for 24 hrs followed by LPS/IFN-gamma-stimulation and measured after 17 hrs by Griess assay. It is filed as functional, cell-based.
A further assay has as its system SW480. Description: Cytotoxicity against human SW480 cells assessed as reduction in cell viability after 24 to 48 hrs by MTT assay. It is filed as functional, cell-based. On the technique in general: Formazan colour is commonly taken as a measure of viable cells.
The subject of assay [1] is LS174T. Description: Cytotoxicity against human LS174T cells assessed as reduction in cell viability by SRB assay. It is filed as functional, cell-based. On the technique in general: The SRB assay estimates cell density from bound dye.
For the next assay, the system named is MCF7. Description: Cytotoxicity against human MCF7 cells assessed as reduction in cell viability by MTT assay. It is filed as functional, cell-based.
Another assay deals with PANC-1. Description: Cytotoxicity against human PANC1 cells assessed as reduction in cell viability by MTT assay. It is filed as functional, cell-based.
For another assay, the system named is MIA PaCa-2. Description: Cytotoxicity against human MIAPaCa2 cells assessed as reduction in cell viability by MTT assay. It is filed as functional, cell-based.
The subject of a further assay is PC-3. Description: Cytotoxicity against human PC3 cells assessed as reduction in cell viability by MTT assay. It is filed as functional, cell-based.
A short description of assay [2]: Antioxidant activity assessed as DPPH free radical scavenging activity after 30 mins. It is filed as functional. (The DPPH test is a chemical assay of radical scavenging.)
Assay [3] can be described thus: Inhibition of NFkappaB (unknown origin). Details: species or system Homo sapiens.
Another assay deals with A549. Description: Cytotoxicity against human A549 cells assessed as reduction in cell viability after 24 hrs by MTT assay. It is filed as functional, cell-based. The settings on record: A549, 24 h.
A further assay deals with SGC-7901. Description: Cytotoxicity against human SGC7901 cells assessed as reduction in cell viability after 24 hrs by MTT assay. It is filed as functional, cell-based. The settings on record: SGC-7901, 24 h.
The next assay relates to HepG2. Description: Cytotoxicity against human HepG2 cells assessed as reduction in cell viability after 24 hrs by MTT assay. It is filed as functional, cell-based. The note with it: HepG2, 24 h.
Another assay concerns HeLa. Description: Cytotoxicity against human HeLa cells assessed as reduction in cell viability after 24 hrs by MTT assay. It is filed as functional, cell-based.
Assay [4] relates to K562. Description: Cytotoxicity against human K562 cells assessed as reduction in cell viability after 24 hrs by MTT assay. It is filed as functional, cell-based. The note with it: K562, 24 h.
The next assay relates to THP-1. Description: Cytotoxicity against human THP1 cells assessed as reduction in cell viability after 24 hrs by MTT assay. It is filed as functional, cell-based. The settings on record: THP-1, 24 h.
In the next assay the test system is L02. Description: Cytotoxicity against human LO2 cells assessed as reduction in cell viability after 24 hrs by MTT assay. It is filed as cell-based. The note with it: L02, 24 h.
The test system of another assay is Bacillus subtilis. Description: Antibacterial activity against Bacillus subtilis after 24 hrs by twofold serial dilution technique. It is filed as functional.
The nature of assay [5]: Antioxidant activity assessed as DPPH free radical scavenging activity. It is filed as functional.
The test system of assay [6] is LS174T. Description: Cytotoxicity against human LS174T cells assessed as reduction in cell viability in presence of PTX by SRB assay. It is filed as functional, cell-based.
Assay [7] relates to LS174T. Description: Cytotoxicity against human LS174T cells assessed as reduction in cell viability in presence of PTX by SRB assay relative to control. It is filed as functional.
Assay [8] has as its system K562. Description: Cytotoxicity against human K562 cells assessed as reduction in cell viability after 48 hrs by SRB assay. It is filed as functional, cell-based. The note with it: K562, 48 h.
In a further assay the test system is HCT-15. Description: Cytotoxicity against human HCT15 cells assessed as reduction in cell viability after 48 hrs by SRB assay. The note with it: HCT-15, 48 h. It is filed as functional, cell-based.
The nature of assay [9]: Cytotoxicity against human […] cells assessed as reduction in cell viability. It is filed as functional, cell-based.
A further assay has as its system MM1.S. Description: Cytotoxicity against human MM1S cells assessed as reduction in cell viability. It is filed as functional, cell-based.
A further assay concerns U-266. Description: Cytotoxicity against human U266 cells assessed as reduction in cell viability. It is filed as functional, cell-based.

Values after ≈ are worked out from the molar mass of the structure shown.

Broadly, the MIC is the lowest concentration found to suppress growth.

As for `O=C1/C(=C/c2cn(-c3ccccc3)nc2-c2ccc([N+](=O)[O-])cc2)CCCC/C1=C\c1cn(-c2ccccc2)nc1-c1ccc([N+](=O)[O-])cc1`, in the assay on MDA-MB-231 (mda-mb-231), the IC50 worked out at 32.4 ppm.
For `O=C(/C=C(O)/C=C/c1ccc(O)c(O)c1)c1ccccc1O`, the IC50 with RAW264.7 stood at 9.6 µM.
Regarding `O=C(/C=C/c1c[nH]c2ccccc12)CC(=O)/C=C/c1c[nH]c2ccccc12`, the IC50 in the assay on SW480 is 15 to 17 µM.
Regarding `O=C1NC(/C=C/c2ccccc2)=NC/1=C\C=C\c1ccccc1`, in the assay with LS174T [1], the IC50 worked out at 8.9 µM.
On to `CN1C/C(=C\c2ccc(N(C)C)cc2[N+](=O)[O-])C(=NO)/C(=C/c2ccc(N(C)C)cc2[N+](=O)[O-])C1`, for which the IC50 in the assay on MCF7, with PANC-1, with MIA PaCa-2 and in the assay with PC-3 was 0.02 µM in each case.
As to `COc1ccc(-c2nn(-c3ccccc3)cc2/C=C2\CN(C)C/C(=C\c3cn(-c4ccccc4)nc3-c3ccc(OC)cc3)C2=O)cc1`, the results for the IC50 (with MDA-MB-231 (mda-mb-231); in assay [2]) were 39.9 ppm and 6400 µM, respectively.
`O=C1/C(=C/c2cn(-c3ccccc3)nc2-c2ccccc2)CN(Cc2ccccc2)C/C1=C\c1cn(-c2ccccc2)nc1-c1ccccc1` displayed an IC50 in the assay on MDA-MB-231 (mda-mb-231) of 45.1 ppm.
The same measure, in the same setting: in the case of `COc1ccc(-c2nn(-c3ccccc3)cc2/C=C2\CCCC/C(=C\c3cn(-c4ccccc4)nc3-c3ccc(OC)cc3)C2=O)cc1` it was 75.8 ppm.
Compound `C=CC(=O)NC(c1ccccc1)C(C(=O)/C=C/c1cccc(O)c1)C(=O)/C=C/c1cccc(O)c1` (stereo not given) yielded an IC50 in [3] of 2.8 µg/mL (≈ 5.99 µM).
`O=C1/C(=C/c2cn(-c3ccccc3)nc2-c2ccccc2)CCCC/C1=C\c1cn(-c2ccccc2)nc1-c1ccccc1` gave an IC50 with MDA-MB-231 (Homo sapiens, MDA-MB-231) of 11.6 µM.
For the compound `O=C1/C(=C/c2cc(/N=C/c3ccc(O)c(O)c3O)ccc2F)CNC/C1=C\c1cc(/N=C/c2ccc(O)c(O)c2O)ccc1F`, the IC50 in the assay with A549, in the assay on SGC-7901, in the assay on HepG2, in the assay with HeLa, with K562 [4] and in the assay on THP-1 was less than 2 µM each time. The IC50 in the assay with L02 is less than 2 µM.
Take `CCN1N=C(C(=NNc2ccccc2)C2=NN(CC)C(c3ccc(O)c(OC)c3)C2)CC1c1ccc(O)c(OC)c1` (stereo not given): inhibition of growth against Bacillus subtilis (MIC) required 3.12 µg/mL (≈ 5.61 µM).
With `COc1cc(/C=C/C(=O)C(=NNc2ccc(C)cc2)C(=O)/C=C/c2ccc(O)c(OC)c2)ccc1O`, the IC50 in assay [5] was determined as 0.253 µg/mL (≈ 0.52 µM).
With `CCCNC(=O)/C(=C/C=C/c1ccccc1)NC(=O)/C=C/c1ccccc1`, the IC50 in the assay with LS174T [6] was 0.0038 µM. Besides, the Activity in the assay on LS174T [7] is listed as 16.2%.
`CN1C/C(=C\c2cn(-c3ccccc3)nc2-c2ccccc2)C(=O)/C(=C/c2cn(-c3ccccc3)nc2-c2ccccc2)C1`: in the assay on MDA-MB-231 (mda-mb-231), the IC50 turned out to be 20.5 ppm.
On to `O=C(/C=C(O)/C=C/c1ccc(O)c(O)c1)c1cc(Cl)ccc1O`, for which the IC50 in the assay on RAW264.7 was determined as 4.9 µM.
As for `COc1cc(CCc2cc(CCc3ccc(OC(C)=O)c(OC)c3)on2)ccc1OC(C)=O`, the IC50 in the assay with K562 [8] was determined as 3 µM; in the assay on HCT-15, 2.8 µM.
`CCOC(OCC)c1ccc(/C=C2\CN(C)C/C(=C\c3ccc(C(OCC)OCC)cc3)C2=NO)cc1`: the IC50 in the assay on MCF7 was found to be 0.03 µM.
Regarding `COc1cc(/C=C/C=C2N=C(/C=C/c3ccccc3)NC\2=O)ccc1O`, the IC50 in the assay on LS174T [1] amounted to 7.6 µM. In the assay on LS174T [7], the Activity was 2.5 - 45.7%.
`O=C1/C(=C/c2cn(-c3ccccc3)nc2-c2ccccc2)CNC/C1=C\c1cn(-c2ccccc2)nc1-c1ccccc1`: the IC50 in [2] was 10500 µM.
For the compound `COc1cc(/C=C/C(=O)C(=Cc2ccc3c(c2)C(=O)N(C2CCC(=O)NC2=O)C3=O)C(=O)/C=C/c2ccc(O)c(OC)c2)ccc1O` (stereo not given), the IC50 stood at 4.55 µM in assay [9], 6.44 µM in the assay with MM1.S and 96 µM in the assay on U-266.
Regarding `O=C(/C=C/c1cn(-c2ccccc2)nc1-c1ccc([N+](=O)[O-])cc1)/C=C/c1cn(-c2ccccc2)nc1-c1ccc([N+](=O)[O-])cc1`, the IC50 in the assay with MDA-MB-231 (mda-mb-231) worked out at 50.4 ppm.
Consider `COc1cc(/C=C/C(=O)/C=C/c2ccc3c(c2)C(=O)N(C2CCC(=O)NC2=O)C3=O)ccc1O` (stereo not given), for which the figures for the IC50 (in [9]; with MM1.S; with U-266) were 5.62 µM, 7.59 µM and 2.33 µM, respectively.
